From patent US12697326B2, “Methods of treating hepatic encephalopathy” (SALIX PHARMACEUTICALS, INC., priority 2008, dated 2026)

Tests used:
Assay type in all cases: in vivo, human
[1] = test system: HE-related hospitalization in subjects with hepatic encephalopathy (HE); assay: Time to first HE-related hospitalization, first study; conditions: for Cummulative number of events / Number of events / Probability of no HE-related hospitalization: ITT
Description: Time to first HE-related hospitalization was computed as the number of days from the first dose of rifaximin to the first hospitalization for an HE related event. The analysis of time to first HE-related hospitalization was based on the comparison of time to hospitalization between rifaximin and placebo.
FIG. 9 illustrates time to first HE-related hospitalization (e.g., hospitalization directly resulting from HE or hospitalization caused by HE) by treatment group in the ITT population in the first study. Table 19 presents estimates of the proportions of subjects who had their first HE-related hospitalization over the course of the Treatment Period and results of statistical analyses. Subjects who discontinued prior to hospitalization due to HE and prior to completion of the 6-month treatment period were censored at the time of discontinuation. […] This hazard ratio represents a 50% reduction, when compared with placebo, in the risk of hospitalization due to HE during the 6-month treatment period.
Note for FIG. 9, the survival distribution estimate on y-axis represents the proportion of subjects without HE-related hospitalization. Dashed line represents rifaximin group and solid line represents placebo group. Open circles and open triangles represent censored subjects. Subjects who discontinued prior to hospitalization due to HE and prior to completion of the 6-month treatment period were censored at the time of discontinuation. Hepatic encephalopathy-related hospitalization was recorded on the HE-related hospitalization CRF.

[2] = test system: asterixis grade in subjects with HE; assay: Level of change from baseline in asterixis grade by treatment group, first study; conditions: 550 mg BID, Baseline to EOT
Description: Asterixis (flapping tremor) was determined with the subject holding both arms and forearms extended with wrists dorsiflexed and fingers open for ≥30 seconds. Asterixis was measured on a continuum of 5 grades, e.g., grades 0 and 4=no abnormal movement vs. almost continuous flapping motions, respectively as shown below: • Grade 0=No tremors; • Grade 1=Rare flapping motions; • Grade 2=Occasional, irregular flaps; • Grade 3=Frequent flaps; and • Grade 4=Almost continuous flapping motions.

[3] = test system: Epworth Sleepiness Scale in subjects with HE; assay: Epworth Sleepiness Scale total score; conditions: 550 mg BID
Description: Total scores for the Epworth Sleepiness Scale were computed and summarized at baseline and Days 28, 56, 84, 112, 140 and 168 using descriptive statistics. Treatment differences for mean change in total scores from baseline to Days 28, 56, 84, 112, 140 and 168 were summarized and compared between treatments.

[4] = test system: hospitalization in subjects with HE; assay: Hospitalizations, second study
Description: Normalizing for subject exposure, this represents a hospitalization rate of 0.60 event/PEY. A total of 59 were hospitalized due HE episodes (e.g., HE-caused). Normalizing for subject exposure, this represents an HE-caused hospitalization rate of 0.29 event/PEY. […] All subjects were capable of worsening over time, and 24/266 subjects (9.0%) did so by 1 or 2 grades.

subjects with HE = assay: Treatment-emergent adverse events, second study
Description: At the time of this interim analysis, TEAEs were reported in 230 subjects (86.5%). The most common TEAEs (e.g., in ≥10% of total subjects) experienced by subjects were the following: peripheral edema (15.8%); urinary tract infection and nausea (12.8% each); and abdominal pain and ascites (10.5% each).
Treatment-emergent SAEs were experienced by 47.4% of subjects.

patients with HE = assay: Retrospective chart review of 145 patients with HE, lactulose then rifaximin
Description: Total number of hospitalizations, duration of hospitalizations, HE endpoints, and cost of therapy were compared between the 2 treatment regimens.

[5] = first HE-related hospitalization, Table 4, 550 mg BID, N = 140, Days >=168
[6] = first HE-related hospitalization, Table 4; 550 mg BID; N = 140; Days [0-28)
[7] = first HE-related hospitalization, Table 4, 550 mg BID, N = 140, Days [28-56]
[8] = first HE-related hospitalization, Table 4; 550 mg BID; N = 140; Days [56-84)
[9] = first HE-related hospitalization, Table 4; 550 mg BID; N = 140; Days [84-140)
[10] = first HE-related hospitalization, Table 4; 550 mg BID; N = 140; Days [140-168)
[11] = first HE-related hospitalization, Table 17, 550 mg BID, N = 140, Days >=168
[12] = first HE-related hospitalization, Table 17; 550 mg BID; N = 140; Days [0-28)
[13] = first HE-related hospitalization, Table 17; 550 mg BID; N = 140; Days [28-56)
[14] = first HE-related hospitalization, Table 17; 550 mg BID; N = 140; Days [56-84)
[15] = first HE-related hospitalization, Table 17; 550 mg BID; N = 140; Days [84-140)
[16] = first HE-related hospitalization, Table 17; 550 mg BID; N = 140; Days [140-168)
[17] = first study, first HE-related hospitalization, N = 140, treatment interval 0 to <28 days
[18] = first study, first HE-related hospitalization, N = 140, treatment interval 28 to <56 days
[19] = first study, first HE-related hospitalization, N = 140, treatment interval 56 to <84 days
[20] = first study, first HE-related hospitalization, N = 140, treatment interval 84 to <140 days
[21] = first study, first HE-related hospitalization, N = 140, treatment interval 140 to <168 days
[22] = first study, first HE-related hospitalization, N = 140, treatment interval ≥168 days

In the case of `CO[C@H]1/C=C/O[C@@]2(C)Oc3c(C)c(O)c4c(O)c(c5c(nc6cc(C)ccn65)c4c3C2=O)NC(=O)/C(C)=C\C=C\[C@H](C)[C@H](O)[C@@H](C)[C@@H](O)[C@@H](C)[C@H](OC(C)=O)[C@@H]1C` [Rifaximin], the “Cumulative Occurrences of Events” value [1, 5] is reported as 23, the “Occurrences of Events” value [1, 5] is reported as 0 and the Survival [1, 5] is reported as 0.8108. The “Cumulative Occurrences of Events” value [1, 6] was 6, the “Occurrences of Events” value [1, 6] was 6 and the Survival [1, 6] was 1.0000. For the same compound, the “Cumulative Occurrences of Events” value [1, 7] was 10, the “Occurrences of Events” value [1, 7] was 4 and the Survival [1, 7] was 0.9564. For the same compound, the “Cumulative Occurrences of Events” value [1, 8] was 15, the “Occurrences of Events” value [1, 8] was 5 and the Survival [1, 8] was 0.9258. The “Cumulative Occurrences of Events” value [1, 9] was 20, the Survival [1, 9] was 0.8848 and the “Cumulative Occurrences of Events” value [1, 10] was 23. For the same compound, the “Occurrences of Events” value [1, 10] was 3, the Survival [1, 10] was 0.8403 and the “Cumulative Occurrences of Events” value [1, 11] was 19. For the same compound, the “Occurrences of Events” value [1, 11] was 0, the Survival [1, 11] was 0.8475 and the “Cumulative Occurrences of Events” value [1, 12] was 4. For the same compound, the “Occurrences of Events” value [1, 12] was 4, the Survival [1, 12] was 1.0000 and the “Cumulative Occurrences of Events” value [1, 13] was 8. The “Occurrences of Events” value [1, 13] was 4, the Survival [1, 13] was 0.9711 and the “Cumulative Occurrences of Events” value [1, 14] was 12. For the same compound, the “Occurrences of Events” value [1, 14] was 4, the Survival [1, 14] was 0.9411 and the “Cumulative Occurrences of Events” value [1, 15] was 17. The “Occurrences of Events” value [1, 15] was 5, the Survival [1, 15] was 0.9094 and the “Cumulative Occurrences of Events” value [1, 16] was 19. The “Occurrences of Events” value [1, 16] was 2, the Survival [1, 16] was 0.8665 and the “Cummulative number of events” value [1, 17] was 4. For the same compound, the Number of events [1, 17] was 4, the “Probability of no HE-related hospitalization” value [1, 17] was 1.0000 and the “Cummulative number of events” value [1, 18] was 8. The Number of events [1, 18] was 4, the “Cummulative number of events” value [1, 19] was 12 and the Number of events [1, 19] was 4. For the same compound, the “Cummulative number of events” value [1, 20] was 17, the Number of events [1, 20] was 5 and the “Probability of no HE-related hospitalization” value [1, 20] was 0.9094. For the same compound, the “Cummulative number of events” value [1, 21] was 19, the Number of events [1, 21] was 2 and the “Cummulative number of events” value [1, 22] was 19. The Number of events [1, 22] was 0, the “subjects with HE-related hospitalizations (of 140)” value ([1]; first study, rifaximin group) was 19 and the “reduction in risk of hospitalization due to HE (HE-related) compared with placebo” value ([1]; first study, 6-month treatment period) was 50%. The “time to first HE related hospitalization vs placebo (FIG. 3, Kaplan Meier)” value ([1]; in vivo) was “increased time to hospitalization”, the “Change from baseline in asterixis grade, Max” value [2] was 2 and the “Change from baseline in asterixis grade, Mean” value [2] was 0.0. The “Change from baseline in asterixis grade, Median” value [2] was 0.0, the “Change from baseline in asterixis grade, Min” value [2] was −2 and the “Number of subjects with change from baseline in asterixis grade of 0” value ([2]; n = 139) was 108. For the same compound, the “Number of subjects with change from baseline in asterixis grade of 1” value ([2]; n = 139) was 10, the “Number of subjects with change from baseline in asterixis grade of 2” value ([2]; n = 139) was 2 and the “Number of subjects with change from baseline in asterixis grade of 3” value ([2]; n = 139) was 0. The “Number of subjects with change from baseline in asterixis grade of 4” value ([2]; n = 139) was 0, the “Number of subjects with change from baseline in asterixis grade of −1” value ([2]; n = 139) was 18 and the “Number of subjects with change from baseline in asterixis grade of −2” value ([2]; n = 139) was 1. For the same compound, the “Percent of subjects with change from baseline in asterixis grade of 0” value ([2]; n = 139) was 77.7%, the “Percent of subjects with change from baseline in asterixis grade of 1” value ([2]; n = 139) was 7.2% and the “Percent of subjects with change from baseline in asterixis grade of 2” value ([2]; n = 139) was 1.4%. For the same compound, the “Percent of subjects with change from baseline in asterixis grade of −1” value ([2]; n = 139) was 12.9%, the “Percent of subjects with change from baseline in asterixis grade of −2” value ([2]; n = 139) was 0.7% and the “Change from Baseline for Epworth Sleepiness Total Score, Max” value ([3]; Baseline to Day 28) was 7. The “Change from Baseline for Epworth Sleepiness Total Score, Mean” value ([3]; Baseline to Day 28) was −0.2, the “Change from Baseline for Epworth Sleepiness Total Score, Median” value ([3]; Baseline to Day 28) was 0.0 and the “Change from Baseline for Epworth Sleepiness Total Score, Min” value ([3]; Baseline to Day 28) was −14. For the same compound, the “Epworth Sleepiness Total Score, Max” value ([3]; Day 28) was 23, the “Epworth Sleepiness Total Score, Mean” value ([3]; Day 28) was 10.0 and the “Epworth Sleepiness Total Score, Median” value ([3]; Day 28) was 9.0. The “Epworth Sleepiness Total Score, Min” value ([3]; Day 28) was 0, the “all cause hospitalization rate” value [4] was 0.60 event/PEY and the “subjects hospitalized due HE episodes (HE-caused)” value [4] was 59. The “subjects hospitalized for any cause (of 266)” value ([4]; all rifaximin) was 133, the “subjects hospitalized for any cause” value ([4]; continuing rifaximin group) was 35 and the “subjects hospitalized for any cause” value ([4]; new rifaximin group) was 98. For the same compound, the “subjects experiencing at least 1 TEAE judged to be severe” value (subjects with HE) was 40.2%, the “subjects with treatment-emergent SAEs” value (subjects with HE) was 47.4% and the “subjects with HE counted for the safety analyses” value (subjects with HE; 57 subjects) was 21.4%. The “incidence of TEAEs considered related to study drug” value (subjects with HE; continuing rifaximin group) was 7.1%, the “TEAE abdominal pain, subjects” value (subjects with HE; interim analysis) was 10.5% and the “TEAE ascites, subjects” value (subjects with HE; interim analysis) was 10.5%. The “TEAE nausea, subjects” value (subjects with HE; interim analysis) was 12.8%, the “TEAE peripheral edema, subjects” value (subjects with HE; interim analysis) was 15.8% and the “TEAE urinary tract infection, subjects” value (subjects with HE; interim analysis) was 12.8%. For the same compound, the “subjects with TEAEs” value (subjects with HE; interim analysis, 230 subjects) was 86.5%, the “incidence of TEAEs considered related to study drug” value (subjects with HE; new rifaximin group) was 7.7% and the “patients with Conn scores of 3 or 4 at end of treatment period” value (patients with HE) was 6%. It also gave a hospitalizations (patients with HE; lactulose 30 mL twice daily then rifaximin 400 mg 3 times/day) of 0.5.
